{
  "source": "paper PMC5507552",
  "about": "(Bioconjugate chemistry, 2017)",
  "test_system": "human HEp2 cells",
  "conditions": "read-out: Dark toxicity (IC50), overnight incubation, Cell Titer Blue, from dose-response curves",
  "data": [
    {"smiles": "COc1ccc(C2=C3C=C(Cl)C(c4ccc(OC)cc4)=[N+]3[B-](F)(F)n3c2cc(Cl)c3-c2ccc(NC(=S)NCCOCCOCCOCCC(=O)N[C@@H](CC(C)C)C(=O)N[C@@H](C)C(=O)N[C@@H](CCCNC(=N)N)C(=O)N[C@@H](CC(C)C)C(=O)N[C@@H](CC(C)C)C(=O)N[C@H](C(N)=O)[C@@H](C)O)cc2)cc1", "note": "[Conjugate 8, BODIPY-3PEG-LARLLT-NH2]", "values": [
      {"measurement": "IC50", "result": 98, "unit": "µM"}
    ]}
  ]
}
